Key:
PD1/PD-L1 [1] = target: T1, PD1/PD-L1 (Homo sapiens, UniProt Q9NZQ7); experiment: PD-1/PD-L1 homogeneous time-resolved fluorescence (HTRF) binding experiment; design: purchased BPS Biosciences; conditions: HTRF (TR-FRET), PD-L1-biotin, PD1-Eu
Excerpt: Experimental Example 1: PD-1/PD-L1 Homogenouse Time-Resolved Fluorescence (HTRF) Binding Experiment
When the PD-1 molecule as the donor is very close to the PD-L1 molecule as the acceptor, the donor molecule will transfer the energy to the receptor molecule, which in turn causes the receptor molecule to emit fluorescence. The ability of small molecules to prevent the binding of PD-L1 to PD-1 can be tested by detecting the intensity of fluorescence. A homogeneous time-resolved fluorescence (HTRF) binding experiment is used to detect the ability of the compounds of the present disclosure to inhibit the binding of PD-1/PD-L1.
PD1/PD-L1 TR-FRET detection kit was purchased from BPS Biosciences. Nivo multi-label analyzer (PerkinElmer).
PD1-Eu, Dye-labeled acceptor, PD-L1-biotin and compounds to be tested were diluted with the buffer in the kit. The compounds to be tested were subjected to 5-fold dilution to eight concentration gradients with a row gun. That is, from 40 μM to 0.5 nM, the DMSO concentration was 4%, and a double-well experiment was set up. 5 μL of inhibitor with each concentration gradient were added to the microwell plate, and 5 μL buffer containing 4% DMSO and 5 μL PD-L1-biotin (PD-L1-biotin) (60 nM) were added into well with the maximum signal (Max) and the well with the minimum signal (Min), only 5 μL of buffer was added to the well with the minimum signal (Min), and the incubation was conducted at 25° C. for 20 minutes. After the incubation was completed, 5 μL of diluted PD1-Eu (10 nM) and […] were added to each well. The reaction system was placed at 25° C. for 90 minutes. The TR-FRET signal was read by a multi-label analyzer after the reaction was completed.
Using the equation (sample−Min)/(Max−Min)×100% to convert the raw data into inhibition rate, and the IC50 value can be obtained by curve fitting with four parameters (obtained from log(inhibitor) vs. response—Variable slope mode in GraphPad Prism). Table 1 provides the inhibitory activity of the compounds of the examples of the present disclosure on PD1/PD-L1 binding
Target sequence in this assay (Q9NZQ7 19-239 limits assumed): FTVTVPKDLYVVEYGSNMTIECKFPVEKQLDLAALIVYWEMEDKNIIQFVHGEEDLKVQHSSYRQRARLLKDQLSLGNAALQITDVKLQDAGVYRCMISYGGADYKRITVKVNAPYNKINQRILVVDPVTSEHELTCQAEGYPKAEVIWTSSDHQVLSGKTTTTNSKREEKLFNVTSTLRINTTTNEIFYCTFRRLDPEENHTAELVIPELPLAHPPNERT

PD1/PD-L1 [2] = target: T1, PD1/PD-L1; experiment: NFAT activity test (TCR Activitor/PD-L1 CHO cells with PD-1/NFAT Reporter-Jurkat cells); format: cell-based; design: host or cells: TCR Activitor/PD-L1 CHO cells; PD-1/NFAT Reporter-Jurkat cells; conditions: TCR Activitor/PD-L1 CHO cells + PD-1/NFAT Reporter-Jurkat cells, 5 hours, luciferase
How it was run: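 TCR activator/PD-L1 CHO cells were pretreated 30 min at 37 °C with compound (20 μM to 0.25 nM, 5-fold steps, 2% DMSO). PD-1/NFAT reporter Jurkat cells were then added for 5 h at 37 °C. NFAT-driven luciferase read by Bright-Glo luminescence, normalised to Min/Max, IC50 from 4-parameter fit.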
Target sequence in this assay (Q9NZQ7 19-290): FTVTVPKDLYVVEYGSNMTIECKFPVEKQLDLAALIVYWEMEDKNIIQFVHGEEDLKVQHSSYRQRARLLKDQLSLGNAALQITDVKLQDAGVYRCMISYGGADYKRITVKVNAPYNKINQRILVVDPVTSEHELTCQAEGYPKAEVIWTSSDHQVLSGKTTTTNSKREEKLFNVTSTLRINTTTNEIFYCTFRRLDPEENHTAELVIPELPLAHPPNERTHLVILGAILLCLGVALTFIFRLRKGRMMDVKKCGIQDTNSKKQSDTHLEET

SMILES: COc1nc(-c2cccc(-c3cccc(NC(=O)c4cc(C)c5c(n4)CN(CCO)CC5)c3Cl)c2Cl)cnc1CN1CC(O)C1 [Compound 21]
- IC50 (PD1/PD-L1 [1]): 7.14 nM
- Maximum effect (induction fold) (PD1/PD-L1 [2]): 3.96 induction fold
- IC50 (PD1/PD-L1 [2]; read-out: IC50, inhibitory activity on PD1/PD-L1 binding (NFAT activity test)): 13.9 nM
